Assay results published in patent US11912650B2, “Bakuchiol derivatives, pharmaceutically acceptable salts thereof, and preparation method and use of the same” (priority 2020, dated 2024).
≈ marks a conversion by molar mass, not a printed value. Like-named read-outs stand apart in the source and are kept apart here.

Legend:
MRSA NCTC10442 = assay: Antibacterial activity assay (broth dilution MIC); format: cell-based, methicillin-resistant Staphylococcus aureus; conditions: Staphylococcus aureus, 37° C., 24 h, compounds 38, 44-45, 58-61, 63-64 with 0.05% Tween 80
Experimental: (§1) Antibacterial activity assay. The antibacterial activities of all the compounds were determined according to a broth dilution method specified in Clinical and Laboratory Standards Institute (CLSI) guidelines. Bacterial cells were inoculated on a Mueller-Hinton agar (MHA) plate for overnight culture, and the concentration of the bacterial cells was adjusted to about 1×10^6 colony-forming units (CFU)/mL with phosphate buffered saline (PBS). First, a 1000 μg/mL stock solution (a final concentration of dimethyl sulfoxide (DMSO) was ≤2%) was prepared by dissolving a sample in DMSO/H2O. Then, the stock solution was diluted with Mueller-Hinton Broth (MHB) to an initial concentration of 100 μg/mL, and the sample solution (100 μL) was subjected to two-fold gradient dilution with MHB in a 96-well plate, to obtain 100 μg/mL to 0.78 μg/mL serial dilutions. Then, a bacterial suspension (100 μL) was added to each well of the 96-well plate and mixed with the test sample solution (100 μL). Among them, test systems for compounds 38, 44-45, 58-61 and 63-64 contained 0.05% of Tween 80. Finally, the 96-well plate was incubated at 37° C. for 24 hours. Absorbances at 600 nm at 0 and 24 h were measured. An minimum inhibitory concentration (MIC) value was defined as the lowest concentration where no visible bacterial growth occurred. All experiments were carried out in at least two duplicates, and biological repeatability could be achieved.

MRSA N315 = assay: Antibacterial activity assay (broth dilution MIC); format: cell-based, methicillin-resistant Staphylococcus aureus; conditions: Staphylococcus aureus, 37° C., 24 h, compounds 38, 44-45, 58-61, 63-64 with 0.05% Tween 80
Experimental: as §1

S. aureus ATCC29213 = assay: Antibacterial activity assay (broth dilution MIC); format: cell-based; conditions: Staphylococcus aureus, 37° C., 24 h, compounds 38, 44-45, 58-61, 63-64 with 0.05% Tween 80
Experimental: as §1

E. coli ATCC25922 = assay: Antibacterial activity assay (broth dilution MIC); format: cell-based; conditions: Escherichia coli, 37° C., 24 h, compounds 38, 44-45, 58-61, 63-64 with 0.05% Tween 80
Experimental: as §1

Gram-positive bacteria = assay: Antibacterial activity against Gram-positive bacteria (MIC summary); format: cell-based; conditions: 24 h, read-out: minimum inhibitory concentration (MIC) against Gram-positive bacteria
Experimental: as §1

Gram-negative bacteria = assay: Antibacterial activity against Gram-negative bacteria (MIC summary); format: cell-based; conditions: 24 h; summary of tables 1 and 2
Experimental: as §1

## C=C[C@@](C)(/C=C/c1ccc(OCCCCN(C)C)cc1)CCC=C(C)C [Compound 5]
MRSA NCTC10442
  MIC: 3.12 µg/mL (≈ 8.79 µM)
MRSA N315
  MIC: 1.56 µg/mL (≈ 4.39 µM)
S. aureus ATCC29213
  MIC: 1.56 µg/mL (≈ 4.39 µM)
E. coli ATCC25922
  MIC: > 50 µg/mL
Gram-positive bacteria
  MIC: 0.39 to 3.12 µg/mL (≈ 1.1 to 8.79 µM)

## C=C[C@@](C)(/C=C/c1ccc(OCCCCNC(=N)N)cc1)CCC=C(C)C [Compound 35]
MRSA NCTC10442
  MIC: 3.12 µg/mL (≈ 8.46 µM)
MRSA N315
  MIC: 1.56 µg/mL (≈ 4.22 µM)
S. aureus ATCC29213
  MIC: 3.12 µg/mL (≈ 8.46 µM)
E. coli ATCC25922
  MIC: 25 µg/mL (≈ 67.6 µM)
Gram-positive bacteria; summary of tables 1 and 2
  MIC: 0.39 to 3.12 µg/mL (≈ 1.06 to 8.46 µM)

## C=C[C@](C)(/C=C/c1ccc(OCC(=O)N[C@@H](CCCNC(=N)N)C(=O)NCCCN(CC)CC)cc1)CCC=C(C)C [Compound 52]
MRSA NCTC10442
  MIC: 0.78 µg/mL (≈ 1.34 µM)
MRSA N315
  MIC: 0.78 µg/mL (≈ 1.34 µM)
S. aureus ATCC29213
  MIC: 1.56 µg/mL (≈ 2.68 µM)
E. coli ATCC25922
  MIC: 25 µg/mL (≈ 42.9 µM)
Gram-positive bacteria; summary of tables 1 and 2
  MIC: 0.39 to 3.12 µg/mL (≈ 0.669 to 5.36 µM)

## C=C[C@](C)(/C=C/c1ccc(OCC(=O)N[C@@H](CCCNC(=N)N)C(=O)N[C@@H](CCCNC(=N)N)C(N)=O)cc1)CCC=C(C)C [Compound 49]
MRSA NCTC10442
  MIC: 1.56 µg/mL (≈ 2.49 µM)
MRSA N315
  MIC: 3.12 µg/mL (≈ 4.99 µM)
S. aureus ATCC29213
  MIC: 1.56 µg/mL (≈ 2.49 µM)
E. coli ATCC25922
  MIC: 12.5 µg/mL (≈ 20 µM)
Gram-positive bacteria
  MIC: 0.39 to 3.12 µg/mL (≈ 0.623 to 4.99 µM)

## C=C[C@@](C)(/C=C/c1ccc(OCCCCN(Cc2ccccn2)Cc2ccccn2)cc1)CCC=C(C)C [Compound 22]
MRSA NCTC10442
  MIC: 1.56 µg/mL (≈ 3.06 µM)
MRSA N315
  MIC: 1.56 µg/mL (≈ 3.06 µM)
S. aureus ATCC29213
  MIC: 3.12 µg/mL (≈ 6.13 µM)
E. coli ATCC25922
  MIC: > 100 µg/mL

## C=C[C@](C)(/C=C/c1ccc(OCC(=O)N[C@H](CCCNC(=N)N)C(=O)N2CCN(c3ccc(N4CC(CNC(C)=O)OC4=O)cc3F)CC2)cc1)CCC=C(C)C (stereo partly drawn) [Compound 53]
MRSA NCTC10442
  MIC: 0.78 µg/mL (≈ 0.989 µM)
MRSA N315
  MIC: 0.78 µg/mL (≈ 0.989 µM)
S. aureus ATCC29213
  MIC: 0.78 µg/mL (≈ 0.989 µM)
E. coli ATCC25922
  MIC: 6.25 µg/mL (≈ 7.92 µM)
Gram-positive bacteria; summary of tables 1 and 2
  MIC: 0.39 to 3.12 µg/mL (≈ 0.494 to 3.96 µM)

## C=C[C@@](C)(/C=C/c1ccc(OCCCCN(C)CCCN(C)C)cc1)CCC=C(C)C [Compound 26]
MRSA NCTC10442
  MIC: 3.12 µg/mL (≈ 7.32 µM)
MRSA N315
  MIC: 1.56 µg/mL (≈ 3.66 µM)
S. aureus ATCC29213
  MIC: 1.56 µg/mL (≈ 3.66 µM)
E. coli ATCC25922
  MIC: 3.12 µg/mL (≈ 7.32 µM)
Gram-positive bacteria; summary of tables 1 and 2
  MIC: 0.39 to 3.12 µg/mL (≈ 0.914 to 7.32 µM)
Gram-negative bacteria
  MIC: 1.56 to 3.12 µg/mL (≈ 3.66 to 7.32 µM)

## C=C[C@@](C)(/C=C/c1ccc(OCCCCN2CCNCCNCCNCCNCC2)cc1)CCC=C(C)C [Compound 31]
MRSA NCTC10442
  MIC: 1.56 µg/mL (≈ 2.97 µM)
MRSA N315
  MIC: 0.78 µg/mL (≈ 1.48 µM)
S. aureus ATCC29213
  MIC: 1.56 µg/mL (≈ 2.97 µM)
E. coli ATCC25922
  MIC: 6.25 µg/mL (≈ 11.9 µM)
Gram-positive bacteria; summary of tables 1 and 2
  MIC: 0.39 to 3.12 µg/mL (≈ 0.742 to 5.94 µM)

## C=C[C@@](C)(/C=C/c1ccc(OCCCCN(CC)CC)cc1)CCC=C(C)C [Compound 6]
MRSA NCTC10442
  MIC: 3.12 µg/mL (≈ 8.15 µM)
MRSA N315
  MIC: 3.12 µg/mL (≈ 8.15 µM)
S. aureus ATCC29213
  MIC: 3.12 µg/mL (≈ 8.15 µM)
E. coli ATCC25922
  MIC: > 100 µg/mL
Gram-positive bacteria
  MIC: 0.39 to 3.12 µg/mL (≈ 1.02 to 8.15 µM)

## C=C[C@](C)(/C=C/c1ccc(OCC(=O)N[C@H](CCCNC(=N)N)C(N)=O)cc1)CCC=C(C)C [Compound 39]
MRSA NCTC10442
  MIC: 3.12 µg/mL (≈ 6.65 µM)
MRSA N315
  MIC: 3.12 µg/mL (≈ 6.65 µM)
S. aureus ATCC29213
  MIC: 3.12 µg/mL (≈ 6.65 µM)
E. coli ATCC25922
  MIC: 12.5 µg/mL (≈ 26.6 µM)
Gram-positive bacteria
  MIC: 0.39 to 3.12 µg/mL (≈ 0.83 to 6.65 µM)

## C=C[C@](C)(/C=C/c1ccc(OCC(=O)N[C@@H](CCCNC(=N)N)C(=O)N[C@@H](CCCNC(=N)N)C(=O)OC)cc1)CCC=C(C)C [Compound 44]
MRSA NCTC10442
  MIC: 1.56 µg/mL (≈ 2.43 µM)
MRSA N315
  MIC: 0.78 µg/mL (≈ 1.22 µM)
S. aureus ATCC29213
  MIC: 0.78 µg/mL (≈ 1.22 µM)
E. coli ATCC25922
  MIC: 3.12 µg/mL (≈ 4.88 µM)
Gram-positive bacteria
  MIC: 0.39 to 3.12 µg/mL (≈ 0.609 to 4.88 µM)
Gram-negative bacteria
  MIC: 1.56 to 3.12 µg/mL (≈ 2.43 to 4.88 µM)

## C=C[C@@](C)(/C=C/c1ccc(OCCCCN2CCCC2)cc1)CCC=C(C)C [Compound 20]
MRSA NCTC10442
  MIC: 1.56 µg/mL (≈ 4.09 µM)
MRSA N315
  MIC: 1.56 µg/mL (≈ 4.09 µM)
S. aureus ATCC29213
  MIC: 1.56 µg/mL (≈ 4.09 µM)
E. coli ATCC25922
  MIC: > 100 µg/mL

## C=C[C@](C)(/C=C/c1ccc(OCC(=O)N[C@@H](Cc2c[nH]cn2)C(=O)N[C@@H](Cc2c[nH]cn2)C(=O)OC)cc1)CCC=C(C)C [Compound 55]
MRSA NCTC10442
  MIC: 12.5 µg/mL (≈ 20.7 µM)
MRSA N315
  MIC: 12.5 µg/mL (≈ 20.7 µM)
S. aureus ATCC29213
  MIC: 12.5 µg/mL (≈ 20.7 µM)
E. coli ATCC25922
  MIC: > 100 µg/mL

## C=C[C@@](C)(/C=C/c1ccc(OCCCCNCCCC)cc1)CCC=C(C)C [Compound 15]
MRSA NCTC10442
  MIC: 1.56 µg/mL (≈ 4.07 µM)
MRSA N315
  MIC: 1.56 µg/mL (≈ 4.07 µM)
S. aureus ATCC29213
  MIC: 1.56 µg/mL (≈ 4.07 µM)
E. coli ATCC25922
  MIC: 12.5 µg/mL (≈ 32.6 µM)
Gram-positive bacteria; summary of tables 1 and 2
  MIC: 0.39 to 3.12 µg/mL (≈ 1.02 to 8.15 µM)

## C=C[C@@](C)(/C=C/c1ccc(OCCCCN2CCN(C)CC2)cc1)CCC=C(C)C [Compound 21]
MRSA NCTC10442
  MIC: 3.12 µg/mL (≈ 7.61 µM)
MRSA N315
  MIC: 3.12 µg/mL (≈ 7.61 µM)
S. aureus ATCC29213
  MIC: 1.56 µg/mL (≈ 3.8 µM)
E. coli ATCC25922
  MIC: > 100 µg/mL

## C=C[C@@](C)(/C=C/c1ccc(OCCCCN)cc1)CCC=C(C)C [Compound 13]
MRSA NCTC10442
  MIC: 1.56 µg/mL (≈ 4.76 µM)
MRSA N315
  MIC: 0.78 µg/mL (≈ 2.38 µM)
S. aureus ATCC29213
  MIC: 1.56 µg/mL (≈ 4.76 µM)
E. coli ATCC25922
  MIC: 12.5 µg/mL (≈ 38.2 µM)
Gram-positive bacteria; summary of tables 1 and 2
  MIC: 0.39 to 3.12 µg/mL (≈ 1.19 to 9.54 µM)

## C=C[C@@](C)(/C=C/c1ccc(OCCCCNCCCCCCCCCC)cc1)CCC=C(C)C [Compound 18]
MRSA NCTC10442
  MIC: 50 µg/mL (≈ 107 µM)
MRSA N315
  MIC: 12.5 µg/mL (≈ 26.7 µM)
S. aureus ATCC29213
  MIC: 50 µg/mL (≈ 107 µM)
E. coli ATCC25922
  MIC: > 100 µg/mL

## C=C[C@](C)(/C=C/c1ccc(OCC(=O)N[C@@H](CCCNC(=N)N)C(=O)OC)cc1)CCC=C(C)C [Compound 38]
MRSA NCTC10442
  MIC: 0.78 µg/mL (≈ 1.61 µM)
MRSA N315
  MIC: 1.56 µg/mL (≈ 3.22 µM)
S. aureus ATCC29213
  MIC: 0.78 µg/mL (≈ 1.61 µM)
E. coli ATCC25922
  MIC: 6.25 µg/mL (≈ 12.9 µM)
Gram-positive bacteria
  MIC: 0.39 to 3.12 µg/mL (≈ 0.805 to 6.45 µM)
